Source: patent US8722616B2, “Anti-HIV peptides and methods of use thereof” (priority 2009, dated 2014)
≈ marks a conversion by molar mass, not a printed value. Non-standard residues stand in square brackets, D forms with d. Residues, ends and D or L forms follow the SMILES beside them. No end group written: not given here. Phg = N[C@H](C(=O)O)c1ccccc1

Legend:
HIV-1IIIB = assay: microbe, parasite or virus in culture
Protocol: (§1) Anti-HIV cytopathic effect inhibition assays were conducted as described (Buckheit et al. (1995) Antimicrob. Agents Chemother., 39:2718-2727). In brief, serially diluted peptides were added to a 96-well round bottom microtiter plate in triplicate. CEM-SS cells at a concentration of 2.5×10^3 cells per well and HIV-1IIIB at the appropriate pre-determined titer were sequentially added to the microtiter plate. The cultures were incubated at 5% CO2/37° C. for six days. Following the incubation, the microtiter plates were stained with XTT tetrazolium dye to evaluate the efficacy and toxicity of the test compound(s).
as §1, with “Cytopathic Effect (CPE) Inhibition Assay: The CPE assay was performed” for “Anti-HIV cytopathic effect inhibition assays were conducted”, “as previously” for “as”, “Briefly,” for “In brief,”, “compound was” for “peptides were”

in vitro = settings: human
Protocol: as §1
as §1, with “Cytopathic Effect (CPE) Inhibition Assay: The CPE assay was performed” for “Anti-HIV cytopathic effect inhibition assays were conducted”, “as previously” for “as”, “Briefly,” for “In brief,”, “compound was” for “peptides were”

[1] = test system: methicin-resistant Staphylococcus aureus (MRSA) USA-300
From the text: (§2) The frequently used residues identified in each kingdom may be applied to peptide design in different ways. First, new antimicrobial peptides can be designed based on ‘templates derived from naturally occurring antimicrobial peptides’. […] Second, new antimicrobial peptides can be designed by ‘combining database-derived peptide motifs’, consisting of frequently used residues. Using the motifs consisting of only residues Gly, Leu and Lys, a second peptide was designed. […] Third, new peptides can be designed based on ‘amino acid percentages obtained from statistical analysis of antimicrobial peptides’ from a specific kingdom or peptide family. Thus, a third peptide was designed in three steps. (i) The amino acid composition for MULTI-18 was obtained by multiplying the percentage of each residue with the total number of residues (18 here) in the target peptide. […] (iii) Multiple peptides can be obtained by combining the above motifs. Only one peptide was designed by following the amphipathic pattern for helical peptides.

E. coli K12 = test system: E. coli K12
From the text: as §2

CEM-SS cells = assay: in vitro
Protocol: as §1
as §1, with “Cytopathic Effect (CPE) Inhibition Assay: The CPE assay was performed” for “Anti-HIV cytopathic effect inhibition assays were conducted”, “as previously” for “as”, “Briefly,” for “In brief,”, “compound was” for “peptides were”

HIV = settings: literature; cited from earlier work
[2] = Table 5, BMAP-27-derived peptides, CEM-SS cells
[3] = Table 4, LL-37-derived peptides, CEM-SS cells
[4] = >100 μg/ml defined as HIV inactive
[5] = Table 1, CEM-SS cells, HIV-1IIIB, six days, 50% inhibition of virus replication
[6] = Table 2, sequence shuffling, CEM-S cells
[7] = read-out: TC50, Table 2, CEM-S cells

## GRFKRFRKKFKKLFK-NH2 [BMAP-15]
HIV-1IIIB; [2]
  EC50: > 49.6 µM
In vitro
  CC50 at 6 days: > 49.6 µM

## GLKKLLGKLLKKLGKLLLK [GLK-19]
[1]; USA-300
  IC50: 160 µM
E. coli K12; K12
  IC50: 10 µM
HIV-1IIIB; 1IIIB
  EC50: > 47.5 µM
CEM-SS cells
  CC50: 25.1 µM

## FRPALIVRTKGTRL [Hyposin-5, reference compound]
HIV-1IIIB; 1IIIB
  EC50: > 61.4 µM
In vitro
  CC50: > 61.4 µM

## GRFKRIRKKLKKLFKKIS-NH2 [BMAP-18I6L10]
HIV-1IIIB; [2]
  EC50: > 44 µM
In vitro
  CC50 at 6 days: 2.79 µM

## KRIVQRIKDFLR-NH2 [KR-12]
HIV-1IIIB; [3]
  EC50: > 63.5 µM
In vitro
  CC50 at 6 days: > 63.5 µM

## RLFDKIRQVIRKF-NH2 [Retro-FK13]
HIV-1IIIB; [3]
  EC50: > 58.1 µM
In vitro
  CC50 at 6 days: 33.7 µM

## KKLLKKLKKLLK [KL-12]
[1]
  inactive against MRSA USA-300 until: > 160 mM
E. coli K12
  inactive against E. coli K12 until: > 160 mM

## CC[C@@H](C)[C@@H](NC(=O)[C@H](CCCNC(=N)N)NC(=O)[C@H](CCC(N)=O)NC(=O)[C@@H](NC(=O)[C@@H](NC(=O)[C@H](CCCNC(=N)N)NC(=O)[C@H](CCCCN)NC(=O)[C@H](Cc1ccccc1)NC(=O)CN)[C@@H](C)CC)C(C)C)C(=O)N[C@@H](CCCCN)C(=O)N[C@@H](CC(=O)O)C(=O)N[C@@H](Cc1ccccc1)C(=O)N[C@@H](CC(C)C)C(=O)N[C@@H](CCCNC(=N)N)C(=O)N[C@@H](CC(N)=O)C(=O)N[C@@H](CC(C)C)C(=O)N[C@H](C(N)=O)C(C)C [GF-17d1]
HIV-1IIIB; [3]
  EC50: > 47.5 µM
In vitro; CEM-SS cells
  CC50 at 6 days: 22.7 µM

## CC[C@H](C)[C@H](NC(=O)[C@H](CCCCN)NC(=O)[C@H](CCCCN)NC(=O)[C@H](Cc1ccccc1)NC(=O)[C@H](CC(C)C)NC(=O)[C@H](CCCCN)NC(=O)[C@H](CCCCN)NC(=O)[C@@H](NC(=O)[C@H](CCCCN)NC(=O)[C@H](CCCCN)NC(=O)[C@H](CCCNC(=N)N)NC(=O)[C@@H](NC(=O)[C@H](CCCNC(=N)N)NC(=O)[C@H](CCCCN)NC(=O)[C@H](Cc1ccccc1)NC(=O)[C@H](CCCNC(=N)N)NC(=O)CN)c1ccccc1)c1ccccc1)C(=O)N[C@@H](CO)C(N)=O [BMAP-18X6X10, GRFKRXRKKXKKLFKKIS] (H-GRFKR[Phg]RKK[Phg]KKLFKKIS-NH2)
HIV-1IIIB; [2]
  EC50: 0.68 µM
In vitro; CEM-SS cells
  CC50 at 6 days: 10.2 µM

## LLGDLLRKSKEKIGKEFKRIVQR-NH2 [LL-23]
In vitro
  CC50 at 6 days: > 35.4 µM

## GRFKRFRKKFKKLFKKIS-NH2 [BMAP-18]
HIV-1IIIB; [4]
  EC50: 0.8 µg/mL
HIV-1IIIB; [2]
  EC50: 0.35 µM
In vitro
  CC50 at 6 days: 8.45 µM

## GIKEWKRIVQRIKDFLRNLV-NH2 [GI-20W17]
HIV-1IIIB; [3]
  EC50: 7.4 µM
In vitro
  CC50 at 6 days: 23.6 µM

## CC[C@@H](C)[C@@H](NC(=O)[C@H](CCCNC(=N)N)NC(=O)[C@H](CCC(N)=O)NC(=O)[C@@H](NC(=O)[C@@H](NC(=O)[C@H](CCCNC(=N)N)NC(=O)[C@H](CCCCN)NC(=O)[C@H](Cc1ccccc1)NC(=O)CN)[C@@H](C)CC)C(C)C)C(=O)N[C@@H](CCCCN)C(=O)N[C@@H](CC(=O)O)C(=O)N[C@@H](Cc1ccccc1)C(=O)N[C@H](CC(C)C)C(=O)N[C@@H](CCCNC(=N)N)C(=O)N[C@@H](CC(N)=O)C(=O)N[C@@H](CC(C)C)C(=O)N[C@H](C(N)=O)C(C)C [GF-17d2]
HIV-1IIIB; [3]
  EC50: > 47.5 µM
In vitro; CEM-SS cells
  CC50 at 6 days: > 47.5 µM

## KRIVQRIKDFLRNLVPRTES [KR-20]
In vitro
  CC50 at 6 days: > 40.5 µM

## SKEKIGKEFKRIVQRIKDFLR [SK-21]
HIV-1IIIB
  anti-HIV activity in words: active against HIV
HIV-1IIIB; [4]
  EC50: 28.5 µg/mL
HIV-1IIIB; [3]
  EC50: 10.8 µM
In vitro; CEM-SS cells
  CC50 at 6 days: 22.5 µM

## CC[C@H](C)[C@H](NC(=O)[C@H](CCCNC(=N)N)NC(=O)[C@H](CCC(N)=O)NC(=O)[C@@H](NC(=O)[C@@H](NC(=O)[C@H](CCCNC(=N)N)NC(=O)[C@H](CCCCN)NC(=O)[C@H](Cc1ccccc1)NC(=O)CN)[C@@H](C)CC)C(C)C)C(=O)N[C@@H](CCCCN)C(=O)N[C@@H](CC(=O)O)C(=O)N[C@@H](Cc1ccccc1)C(=O)N[C@@H](CC(C)C)C(=O)N[C@@H](CCCNC(=N)N)C(=O)N[C@@H](CC(N)=O)C(=O)N[C@@H](CC(C)C)C(=O)N[C@H](C(N)=O)C(C)C [GF-17]
In vitro
  CC50 at 6 days: 8.9 µM
In vitro; CEM-SS cells
  CC50 at 144 h: 18.7 µg/mL (≈ 8.9 µM)
CEM-SS cells
  CC50: 10.8 µM

## FLFPLITSFLSKVL [Ranatuerin 9, reference compound]
HIV-1IIIB; 1IIIB
  EC50: 16.7 µM
In vitro
  CC50: 34.6 µM

## GFNEIVQDIEDFLQNLV-NH2 [GF17-]
HIV-1IIIB; 1IIIB
  EC50: > 25.1 µM
In vitro
  CC50: > 25.1 µM

## indolicidin (ILPWKWPWWPWRR; ends and bridges not checked; UniProt P33046 131-143, looked up) [bovine Trp- and Pro-rich cathelicidin peptide]
HIV
  concentration required to be effective against HIV: 333 µg/mL

## FFGKVLKLIRKIF-NH2 [Peptide D76]
HIV-1IIIB; [5]
  EC50: 0.63 µM
In vitro
  CC50 at 6 days: 6.78 µM

## CC[C@H](C)[C@H](NC(=O)CN)C(=O)N[C@@H](CCCCN)C(=O)N[C@@H](CCC(=O)O)C(=O)N[C@H](C(=O)N[C@@H](CCCCN)C(=O)N[C@@H](CCCNC(=N)N)C(=O)N[C@H](C(=O)N[C@H](C(=O)N[C@@H](CCC(N)=O)C(=O)N[C@@H](CCCNC(=N)N)C(=O)N[C@H](C(=O)N[C@@H](CCCCN)C(=O)N[C@@H](CC(=O)O)C(=O)N[C@@H](Cc1ccccc1)C(=O)N[C@@H](CC(C)C)C(=O)N[C@@H](CCCNC(=N)N)C(=O)N[C@@H](CC(N)=O)C(=O)N[C@@H](CC(C)C)C(=O)N[C@H](C(N)=O)C(C)C)[C@@H](C)CC)C(C)C)[C@@H](C)CC)c1ccccc1 [GI-20X17, GIKEXKRIVQRIKDFLRNLV] (H-GIKE[Phg]KRIVQRIKDFLRNLV-NH2)
HIV-1IIIB; [3]
  EC50: > 40.6 µM
In vitro; CEM-SS cells
  CC50 at 6 days: 7.3 µM

## GIKEFKREFQRIKDFLRNLV-NH2 [GI-20EF]
HIV-1IIIB; [3]
  EC50: 1.6 µM
In vitro
  CC50 at 6 days: 9.9 µM

## GIKQFKRIVQRIKDFLRNLV-NH2 [GI-20Q16]
HIV-1IIIB; [3]
  EC50: 0.91 µM
In vitro
  CC50 at 6 days: 13.7 µM

## GRFKRFRKPFKKLFKKIS-NH2 [BMAP-18P9]
HIV-1IIIB; [2]
  EC50: 3.2 µM
In vitro
  CC50 at 6 days: 18.9 µM

## Cc1cn([C@H]2C[C@H](N=[N+]=[N-])[C@@H](CO)O2)c(=O)[nH]c1=O [AZT, reference compound]
HIV-1IIIB; Human immunodeficiency virus 1
  EC50: 0.007 µM
HIV-1IIIB; Human immunodeficiency virus 1, CEM-SS
  EC50: 0.007 µM
In vitro
  CC50 at 6 days: > 0.5 µM
CEM-SS cells; human, 6 days
  CC50: > 0.5 µM

## GIKEFKRIVQRIKDFLRNLV-NH2 [GI-20]
HIV-1IIIB; [3]
  EC50: 1.08 µM
In vitro
  CC50 at 6 days: 22.7 µM

## GLWEKIDKFASII [Peptide B2]
HIV-1IIIB; [6]
  EC50: > 65.8 µM
CEM-SS cells; [7]
  CC50: > 65.8 µM

## GIIDIAKKLFESW [Peptide B3]
HIV-1IIIB; 1IIIB
  EC50: 20.1 µM
CEM-SS cells
  CC50: > 65.8 µM

## SLSRFLRFLKIVYRRAF-NH2 [Peptide D98]
HIV-1IIIB; [5]
  EC50: 0.83 µM
CEM-SS cells; read-out: TC50, Table 1, CEM-SS cells, six days, 50% reduction in cell viability
  CC50: 8.6 µM

## FKRIVQRIKDFLR-NH2 [FK-13]
HIV-1IIIB; [4]
  EC50: 5.9 µg/mL
HIV-1IIIB; [3]
  EC50: 3.4 µM
In vitro
  CC50 at 6 days: 10.4 µM

## GWLKKIESIIDAF [Peptide B8]
HIV-1IIIB; [6]
  EC50: 29.5 µM
CEM-SS cells; [7]
  CC50: > 65.8 µM

## LLGDLLRKSKEKIGKEFKRIVQRIKDFLRNLVPRTES [LL-37, reference compound]
HIV-1IIIB; [4]
  EC50: 7.3 µg/mL
HIV-1IIIB; [3]
  EC50: 1.6 µM
In vitro
  CC50 at 6 days: 18.4 µM
